Test [1] has as its target Prostaglandin G/H synthase 1 (Homo sapiens, UniProt P23219). Nature of the test: Concentration required for 50% inhibition against Prostaglandin G/H synthase 1 from human.
For test [2], the target named is T1, Prostaglandin G/H synthase 2 (Homo sapiens, UniProt P35354).
T1 sequence (P35354 whole entry): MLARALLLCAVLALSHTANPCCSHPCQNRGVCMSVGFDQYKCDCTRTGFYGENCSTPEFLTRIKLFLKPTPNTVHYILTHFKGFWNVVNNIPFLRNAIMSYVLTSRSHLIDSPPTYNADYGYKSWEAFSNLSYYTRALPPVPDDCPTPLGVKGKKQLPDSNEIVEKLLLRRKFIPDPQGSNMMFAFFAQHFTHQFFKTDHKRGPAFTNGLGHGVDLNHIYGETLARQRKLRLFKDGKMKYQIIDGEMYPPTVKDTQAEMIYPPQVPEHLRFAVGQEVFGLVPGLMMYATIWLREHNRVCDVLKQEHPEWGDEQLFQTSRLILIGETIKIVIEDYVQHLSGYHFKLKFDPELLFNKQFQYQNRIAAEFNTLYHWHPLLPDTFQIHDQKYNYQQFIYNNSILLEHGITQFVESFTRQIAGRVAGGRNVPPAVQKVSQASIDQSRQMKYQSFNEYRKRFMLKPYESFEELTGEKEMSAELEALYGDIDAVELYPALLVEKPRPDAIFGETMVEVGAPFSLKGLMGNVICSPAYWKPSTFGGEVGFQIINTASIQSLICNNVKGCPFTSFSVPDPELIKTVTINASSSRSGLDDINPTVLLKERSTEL
Nature of the test: Concentration required for 50% inhibition against Prostaglandin G/H synthase 2 from human.

What is called IC50 is the point on the concentration scale where inhibition reaches its midpoint.

Chain of Prostaglandin G/H synthase 1 (P23219 whole entry): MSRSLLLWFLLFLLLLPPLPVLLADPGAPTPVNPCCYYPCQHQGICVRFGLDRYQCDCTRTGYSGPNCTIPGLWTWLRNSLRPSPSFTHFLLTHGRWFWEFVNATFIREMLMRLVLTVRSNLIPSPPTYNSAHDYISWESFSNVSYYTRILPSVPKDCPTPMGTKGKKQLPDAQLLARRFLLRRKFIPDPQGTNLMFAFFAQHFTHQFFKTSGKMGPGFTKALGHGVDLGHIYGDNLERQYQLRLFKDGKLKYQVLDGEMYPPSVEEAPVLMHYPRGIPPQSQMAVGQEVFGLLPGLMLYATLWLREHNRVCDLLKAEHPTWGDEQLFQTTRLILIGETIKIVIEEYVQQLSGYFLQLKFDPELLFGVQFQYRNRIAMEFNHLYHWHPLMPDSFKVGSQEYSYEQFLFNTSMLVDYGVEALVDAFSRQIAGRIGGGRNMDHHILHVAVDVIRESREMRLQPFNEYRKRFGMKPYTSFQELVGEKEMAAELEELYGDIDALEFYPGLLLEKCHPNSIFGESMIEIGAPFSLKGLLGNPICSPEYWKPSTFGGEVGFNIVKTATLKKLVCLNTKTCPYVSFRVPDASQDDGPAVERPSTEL

`CC(C(=O)O)c1cc(C(=O)c2ccccc2)ccc1O` (stereo not drawn): the results for the IC50 in test [1] and in test [2] were 51 nM and 300 nM, respectively.

`COc1ccc(C(=O)c2ccccc2)cc1C(C)C(=O)O` (stereo not drawn) showed an IC50 in test [1] of 42 nM.

For the origin of these results see ChEMBL document CHEMBL1133736, “Modeling cyclooxygenase inhibition. Implication of active site hydration on the selectivity of ketoprofen analogues” (J Med Chem, 2000).
